The source of these data is US20120015390A1, “Methods for the Detection and Treatment of Aberrant Prion Disease” (PROTEA BIOPHARMA N.V., priority 2009, published 2012).

In assay [1] the test system is aberrant membrane NADH oxidase. The class given is cell-based.
Assay [2] concerns NADH oxidase. The class given is cell-based.
Assay [3] concerns NADH-oxidase. The conditions noted are these: in vivo.

“And” between values parts separate entries of the source, which are not always exact repeats. Equal values may be shown once.

As to `[Cl][Cd][Cl]` [CdCl2], in assay [1], the “CPM NADH hypotoon” value is recorded as 376 CPM, the “CPM NADH isotoon” value was found to be 114 CPM and the CPM iso/hypo amounted to 0.30.
Regarding `C[S+](C)[O-]` [DMSO], in assay [2], the “chemiluminescence response after addition of substance and hypotonic NADH” value is given as “significant concentration-dependent increase”; the “chemiluminescence response after addition of substance and isotonic NADH” value is recorded as “not observed”. In addition, the “isotonic NADH induced lucigenin-dependent chemiluminescence in urine” value in assay [3] was “increases”.
As for `[Cl][Ni][Cl]` [NiCl2], in assay [1], the “CPM NADH hypotoon” value came to 860 CPM, the “CPM NADH isotoon” value was 913 CPM, the CPM iso/hypo is 1.06 and the “induction of aberrant NADH-oxidase (higher counts under isotonic conditions)” value was “suggest induction of aberrant NADH-oxidase”.
On the same counts, the results for `O=[N+]([O-])[O-].O=[N+]([O-])[O-].[Pb+2]` [Pb(NO3)2] are 817 CPM, 1402 CPM, 1.71 and “suggest induction of aberrant NADH-oxidase”.
`C[CH2][Hg][S]c1ccccc1C(=O)[O-].[Na+]` [Thimerosal]: in assay [1], the “CPM NADH hypotoon” value is given as 3338 CPM, the “CPM NADH isotoon” value amounted to 2380 CPM and the CPM iso/hypo amounted to 0.71.
Turning to Heparin, in assay [2], the CPM was 17740 CPM and 15303 CPM and 14082 CPM and 10372 CPM and 9192 CPM; the “chemiluminescence response after addition of substance and hypotonic NADH” value was “significant concentration-dependent increase”; the “chemiluminescence response after addition of substance and isotonic NADH” value was “not observed”.
For the compound HgCl2, in assay [1], the “CPM NADH hypotoon” value came out at 18 CPM, the “CPM NADH isotoon” value was determined as 101 CPM, the CPM iso/hypo turned out to be 5.61 and the “induction of aberrant NADH-oxidase (higher counts under isotonic conditions)” value was “suggest induction of aberrant NADH-oxidase”. Further, the “formation of cell surface associated aberrant NADH oxidase” value in assay [2] is “induces the formation of cell surface associated aberrant NADH oxidase”.
